Test results from patent US6737383B1, “Herbicidal oxadiazolidines” (priority 1999, dated 2004).

Legend:
rape = assay: Test B pre/postemergence rape; format: in vivo, Brassica napus
Summary of the method: (§1)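 Test chemicals in a non-phytotoxic solvent mixture with surfactant were sprayed preemergence onto planted seeds and postemergence onto plants 2 to 18 cm tall (1- to 4-leaf stage). After twelve to sixteen days in a greenhouse, injury was visually rated against untreated controls from 0 (no effect) to 10 (complete control).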

giant foxtail = assay: Test B pre/postemergence giant foxtail; format: in vivo, Setaria faberii
Summary of the method: as §1

wheat = assay: Test B pre/postemergence wheat; format: in vivo, Triticum aestivum
Summary of the method: as §1

velvetleaf = assay: Test B pre/postemergence velvetleaf; format: in vivo, Abutilon theophrasti
Summary of the method: as §1

morningglory = assay: Test B pre/postemergence morningglory; format: in vivo, Ipomoea hederacea
Summary of the method: as §1

cocklebur = assay: Test B pre/postemergence cocklebur; format: in vivo, Xanthium strumarium
Summary of the method: as §1

blackgrass = assay: Test B pre/postemergence blackgrass; format: in vivo, Alopecurus myosuroides
Summary of the method: as §1

soybean = assay: Test B pre/postemergence soybean; format: in vivo, Glycine max
Summary of the method: as §1

surinam grass = assay: Test B pre/postemergence surinam grass; format: in vivo, Brachiaria decumbens
Summary of the method: as §1

wild oat = assay: Test B pre/postemergence wild oat; format: in vivo, Avena fatua
Summary of the method: as §1

crabgrass = assay: Test B pre/postemergence crabgrass; format: in vivo, Digitaria sanguinalis
Summary of the method: as §1

bedstraw = assay: Test B pre/postemergence bedstraw; format: in vivo, Galium aparine
Summary of the method: as §1

sugar beet = assay: Test B pre/postemergence sugar beet; format: in vivo, Beta vulgaris
Summary of the method: as §1

pigweed = assay: Test B pre/postemergence pigweed; format: in vivo, Amaranthus retroflexus
Summary of the method: as §1

purple nutsedge = assay: Test B pre/postemergence purple nutsedge; format: in vivo, Cyperus rotundus
Summary of the method: as §1

corn = assay: Test B pre/postemergence corn; format: in vivo, Zea mays
Summary of the method: as §1

[1] = Postemergence, Rate 62 g/ha, scale 0 to 10, 0 is no effect, 10 is complete control
[2] = Postemergence, Rate 125 g/ha, scale of 0 to 10 where 0 is no effect and 10 is complete control
[3] = Preemergence, Rate 125 g/ha, scale of 0 to 10 where 0 is no effect and 10 is complete control
[4] = Preemergence, Rate 250 g/ha, scale 0 (no effect) to 10 (complete control)
[5] = Rate 62 g/ha, Preemergence, scale 0 to 10
[6] = Rate 250 g/ha, Postemergence, scale 0 to 10, 0 is no effect, 10 is complete control
[7] = Rate 500 g/ha, Postemergence, scale 0 to 10, 0 is no effect, 10 is complete control
[8] = Rate 500 g/ha, Preemergence, scale 0 to 10 (0 no effect, 10 complete control)

SMILES: Cc1nc(C(C)n2c(=O)on(C(=O)N(c3ccccc3)C(C)C)c2=O)sc1C (stereo not shown) [Compound 756]
- Plant response rating, Rape (rape; [1]): 0
- Rape plant response rating (rape; [2]): 0
- Plant response rating, Rape (rape; [3]): 0
- Rape plant response rating (rape; [4]): 0
- Rape plant response rating (rape; [5]): 0
- Rape plant response rating (rape; [6]): 0
- Rape plant response rating (rape; [7]): 3
- Rape plant response rating (rape; [8]): 0
- Plant response rating, Giant foxtail (giant foxtail; [1]): 0
- Giant foxtail plant response rating (giant foxtail; [2]): 0
- Plant response rating, Giant foxtail (giant foxtail; [3]): 9
- Giant foxtail plant response rating (giant foxtail; [4]): 9
- Giant foxtail plant response rating (giant foxtail; [5]): 7
- Giant foxtail plant response rating (giant foxtail; [6]): 0
- Giant foxtail plant response rating (giant foxtail; [7]): 0
- Giant foxtail plant response rating (giant foxtail; [8]): 9
- Plant response rating, Wheat (wheat; [1]): 0
- Plant response rating, Wheat (wheat; [3]): 0
- Wheat plant response rating (wheat; [4]): 0
- Wheat plant response rating (wheat; [5]): 0
- Wheat plant response rating (wheat; [6]): 0
- Wheat plant response rating (wheat; [7]): 0
- Wheat plant response rating (wheat; [8]): 0
- Plant response rating, Velvetleaf (velvetleaf; [1]): 0
- Plant response rating, Velvetleaf (velvetleaf; [3]): 0
- Velvetleaf plant response rating (velvetleaf; [4]): 0
- Velvetleaf plant response rating (velvetleaf; [5]): 0
- Velvetleaf plant response rating (velvetleaf; [6]): 0
- Velvetleaf plant response rating (velvetleaf; [7]): 0
- Velvetleaf plant response rating (velvetleaf; [8]): 0
- Plant response rating, Morningglory (morningglory; [1]): 4
- Morningglory plant response rating (morningglory; [2]): 7
- Plant response rating, Morningglory (morningglory; [3]): 0
- Morningglory plant response rating (morningglory; [4]): 0
- Morningglory plant response rating (morningglory; [5]): 0
- Morningglory plant response rating (morningglory; [6]): 10
- Morningglory plant response rating (morningglory; [7]): 10
- Morningglory plant response rating (morningglory; [8]): 0
- Plant response rating, Cocklebur (cocklebur; [1]): 0
- Cocklebur plant response rating (cocklebur; [2]): 0
- Plant response rating, Cocklebur (cocklebur; [3]): 0
- Cocklebur plant response rating (cocklebur; [4]): 0
- Cocklebur plant response rating (cocklebur; [5]): 0
- Cocklebur plant response rating (cocklebur; [6]): 0
- Cocklebur plant response rating (cocklebur; [7]): 0
- Cocklebur plant response rating (cocklebur; [8]): 0
- Plant response rating, Blackgrass (blackgrass; [1]): 0
- Blackgrass plant response rating (blackgrass; [2]): 0
- Plant response rating, Blackgrass (blackgrass; [3]): 2
- Blackgrass plant response rating (blackgrass; [4]): 4
- Blackgrass plant response rating (blackgrass; [5]): 0
- Blackgrass plant response rating (blackgrass; [6]): 0
- Blackgrass plant response rating (blackgrass; [7]): 3
- Blackgrass plant response rating (blackgrass; [8]): 7
- Plant response rating, Soybean (soybean; [1]): 2
- Plant response rating, Soybean (soybean; [3]): 0
- Soybean plant response rating (soybean; [4]): 0
- Soybean plant response rating (soybean; [5]): 0
- Soybean plant response rating (soybean; [6]): 2
- Soybean plant response rating (soybean; [7]): 2
- Soybean plant response rating (soybean; [8]): 0
- Plant response rating, B. signalgrass (surinam grass; [1]): 0
- B. signalgrass plant response rating (surinam grass; [2]): 0
- B. signalgrass plant response rating (surinam grass; Preemergence, Rate 62 g/ha, scale of 0 to 10 where 0 is no effect and 10 is complete control): 0
- Plant response rating, B. signalgrass (surinam grass; [3]): 0
- B. signalgrass plant response rating (surinam grass; [4]): 0
- B. signalgrass plant response rating (surinam grass; [6]): 0
- B. signalgrass plant response rating (surinam grass; [7]): 2
- B. signalgrass plant response rating (surinam grass; [8]): 3
- Plant response rating, Wild oats (wild oat; [1]): 0
- Plant response rating, Wild oats (wild oat; [3]): 0
- Wild oats plant response rating (wild oat; [4]): 0
- Wild oats plant response rating (wild oat; [5]): 0
- Wild oats plant response rating (wild oat; [6]): 0
- Wild oats plant response rating (wild oat; [7]): 0
- Wild oats plant response rating (wild oat; [8]): 0
- Plant response rating, Crabgrass (crabgrass; [1]): 0
- Crabgrass plant response rating (crabgrass; [2]): 0
- Plant response rating, Crabgrass (crabgrass; [3]): 9
- Crabgrass plant response rating (crabgrass; [4]): 9
- Crabgrass plant response rating (crabgrass; [5]): 4
- Crabgrass plant response rating (crabgrass; [6]): 0
- Crabgrass plant response rating (crabgrass; [7]): 3
- Crabgrass plant response rating (crabgrass; [8]): 9
- Plant response rating, Bedstraw (bedstraw; [1]): 0
- Bedstraw plant response rating (bedstraw; [2]): 0
- Plant response rating, Bedstraw (bedstraw; [3]): 0
- Bedstraw plant response rating (bedstraw; [4]): 0
- Bedstraw plant response rating (bedstraw; [5]): 0
- Bedstraw plant response rating (bedstraw; [6]): 3
- Bedstraw plant response rating (bedstraw; [8]): 0
- Plant response rating, Sugarbeets (sugar beet; [1]): 0
- Plant response rating, Sugarbeets (sugar beet; [3]): 0
- Sugarbeets plant response rating (sugar beet; [4]): 0
- Sugarbeets plant response rating (sugar beet; [5]): 0
- Sugarbeets plant response rating (sugar beet; [6]): 0
- Sugarbeets plant response rating (sugar beet; [7]): 0
- Sugarbeets plant response rating (sugar beet; [8]): 0
- Plant response rating, Redroot pigweed (pigweed; [1]): 0
- Redroot pigweed plant response rating (pigweed; [2]): 0
- Plant response rating, Redroot pigweed (pigweed; [3]): 0
- Redroot pigweed plant response rating (pigweed; [4]): 0
- Redroot pigweed plant response rating (pigweed; [5]): 0
- Redroot pigweed plant response rating (pigweed; [6]): 0
- Redroot pigweed plant response rating (pigweed; [7]): 3
- Redroot pigweed plant response rating (pigweed; [8]): 0
- Plant response rating, Nutsedge (purple nutsedge; [1]): 0
- Nutsedge plant response rating (purple nutsedge; [2]): 0
- Plant response rating, Nutsedge (purple nutsedge; [3]): 0
- Nutsedge plant response rating (purple nutsedge; [4]): 0
- Nutsedge plant response rating (purple nutsedge; [6]): 0
- Nutsedge plant response rating (purple nutsedge; [7]): 0
- Nutsedge plant response rating (purple nutsedge; [8]): 7
- Plant response rating, Corn (corn; [1]): 0
- Corn plant response rating (corn; [2]): 0
- Plant response rating, Corn (corn; [3]): 0
- Corn plant response rating (corn; [4]): 0
- Corn plant response rating (corn; [5]): 0
- Corn plant response rating (corn; [6]): 0
- Corn plant response rating (corn; [7]): 0
- Corn plant response rating (corn; [8]): 0
